Measured values taken from PubChem BioAssay AID330 (DTP/NCI, 2004).
“And” between values parts separate entries of the source, which are not always exact repeats. Equal values may be shown once. Toxic doses and inconclusive results are not listed.

Tested on: P388 leukemia ip, CD2F1 mice, survival T/C
Assay: NCI In Vivo Anticancer Drug Screen. Data for tumor model P388 Leukemia (intraperitoneal) in CD2F1 (CDF1) mice
Conditions: endpoint: median survival time, higher = longer survival
Procedure, shortened: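 Mice carrying the transplanted tumor received test compound or vehicle. Survival was recorded in each group, and the value is the treated-group measurement divided by that of the vehicle-treated control group.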

[1] = dose: 50.0 mg/kg/injection, schedule: Q01DX005 (ip), vehicle: saline with Tween-80
[2] = dose: 100.0 mg/kg/injection, schedule: Q01DX005 (ip), vehicle: saline with Tween-80
[3] = dose: 200.0 mg/kg/injection, schedule: Q01DX005 (ip), vehicle: saline with Tween-80
[4] = dose: 50.0 mg/kg/injection, schedule: Q01DX009 (ip), vehicle: saline
[5] = dose: 200.0 mg/kg/injection, schedule: Q01DX009 (ip), vehicle: saline
[6] = dose: 50.0 mg/kg/injection, schedule: Q01DX005 (ip), vehicle: Klucel (hydroxypropylcellulose) (HPC)
[7] = dose: 100.0 mg/kg/injection, schedule: Q01DX005 (ip), vehicle: Klucel (hydroxypropylcellulose) (HPC)
[8] = dose: 200.0 mg/kg/injection, schedule: Q01DX005 (ip), vehicle: Klucel (hydroxypropylcellulose) (HPC)
[9] = dose: 50.0 mg/kg/injection, schedule: Q01DX009 (ip), vehicle: saline with Tween-80
[10] = dose: 100.0 mg/kg/injection, schedule: Q01DX009 (ip), vehicle: saline with Tween-80
[11] = dose: 200.0 mg/kg/injection, schedule: Q01DX009 (ip), vehicle: saline with Tween-80
[12] = dose: 60.0 mg/kg/injection, schedule: Q01DX005 (ip), vehicle: saline with Tween-80
[13] = dose: 120.0 mg/kg/injection, schedule: Q01DX005 (ip), vehicle: saline with Tween-80
[14] = dose: 240.0 mg/kg/injection, schedule: Q01DX005 (ip), vehicle: saline with Tween-80
[15] = dose: 25.0 mg/kg/injection, schedule: Q01DX005 (ip), vehicle: Klucel (hydroxypropylcellulose) (HPC)

With `Cc1nc(-c2ccccc2)c2c(C)[nH]c(-c3ccccc3)c2n1` the T/C (dose: 50.0 mg/kg/injection, schedule: Q01DX009 (ip), vehicle: Klucel (hydroxypropylcellulose) (HPC)) was 110 % of control, the T/C (dose: 100.0 mg/kg/injection, schedule: Q01DX009 (ip), vehicle: Klucel (hydroxypropylcellulose) (HPC)) was 112 % of control and the T/C (dose: 200.0 mg/kg/injection, schedule: Q01DX009 (ip), vehicle: Klucel (hydroxypropylcellulose) (HPC)) was 104 % of control.

With `O=C1c2ccccc2CN(C(=Nc2ccccc2)Nc2ccccc2)c2ccccc21` the T/C [1] was 90 % of control, the T/C [2] was 91 % of control and the T/C [3] was 102 % of control.

`CC(=O)C(=C/C=C/c1ccccc1)C(C)=O` was tested, and the T/C [1] was 90 % of control, the T/C [2] was 98 % of control and the T/C [3] was 100 % of control.

For `Cc1ccc(NCCCC2CCCN3CCCCC23)c2c(=O)c3ccccc3sc12` (stereo not given), the T/C (dose: 12.5 mg/kg/injection, schedule: Q01DX005 (ip), vehicle: distilled water + Tween-80) was 100 % of control, the T/C (dose: 25.0 mg/kg/injection, schedule: Q01DX005 (ip), vehicle: distilled water + Tween-80) was 91 % of control and the T/C (dose: 50.0 mg/kg/injection, schedule: Q01DX005 (ip), vehicle: distilled water + Tween-80) was 90 % of control.

`Cn1cnc2c1c(=O)n(N)c(=O)n2C` was tested, and the T/C (dose: 60.0 mg/kg/injection, schedule: Q01DX005 (ip), vehicle: Klucel (hydroxypropylcellulose) (HPC)) was 102 % of control, the T/C (dose: 120.0 mg/kg/injection, schedule: Q01DX005 (ip), vehicle: Klucel (hydroxypropylcellulose) (HPC)) was 98 % of control and the T/C (dose: 240.0 mg/kg/injection, schedule: Q01DX005 (ip), vehicle: Klucel (hydroxypropylcellulose) (HPC)) was 92 % of control.

For `CCOCC[Se]c1ccccc1`, the T/C [4] was 92 % of control, the T/C (dose: 100.0 mg/kg/injection, schedule: Q01DX009 (ip), vehicle: saline) was 92 % of control and the T/C [5] was 91 % of control.

For `CCOC(=O)N[C@H]1CCc2cc(OC)c(OC)c(OC)c2-c2ccc(SC)c(=O)cc21`, the T/C (dose: 0.75 mg/kg/injection, schedule: Q01DX009 (ip), vehicle: other) was 163 % of control, the T/C (dose: 1.5 mg/kg/injection, schedule: Q01DX009 (ip), vehicle: other) was 172 % of control and the T/C (dose: 3.0 mg/kg/injection, schedule: Q01DX009 (ip), vehicle: other) was 109 % of control and 114 % of control.

With `O=c1c2c(-c3cc(-c4ccccc4)nc4[nH]n(-c5ccccc5)c(=O)c34)cc(-c3ccccc3)nc2[nH]n1-c1ccccc1` the T/C [6] was 96 % of control, the T/C [7] was 107 % of control and the T/C [8] was 96 % of control.

For `Cc1cc(Cl)c2ccc(Cl)c(C)c2n1`, the T/C [1] was 102 % of control, the T/C [2] was 104 % of control and the T/C [3] was 100 % of control.

In the case of `O=C1/C(=C/c2ccc(O)cc2)Oc2cc(O)ccc21`, the T/C (dose: 100.0 mg/kg/injection, schedule: Q01DX001 (ip), vehicle: saline with Tween-80) is reported as 97 % of control, the T/C (dose: 200.0 mg/kg/injection, schedule: Q01DX001 (ip), vehicle: saline with Tween-80) is reported as 91 % of control and the T/C (dose: 400.0 mg/kg/injection, schedule: Q01DX001 (ip), vehicle: saline with Tween-80) is reported as 92 % of control.

In the case of `CNC(=S)N/N=C/c1nccc(-c2ccccc2)c1C`, the T/C (dose: 200.0 mg/kg/injection, schedule: Q04DX003 (ip), vehicle: saline with Tween-80) is reported as 107 % of control.

`CCN(CC)CCCC(C)NC(=S)N/N=C(\C)c1ccccn1` (stereo not given) was tested, and the T/C [4] was 110 % of control and 113 % of control and the T/C [5] was 157 % of control.

With `Cc1ccc(S(=O)(=O)/N=C2\CCN(S(=O)(=O)c3ccc(C)cc3)N2S(=O)(=O)c2ccc(C)cc2)cc1` the T/C [6] was 97 % of control, the T/C [7] was 94 % of control and the T/C [8] was 97 % of control.

In the case of `CCOC(=O)c1sc(=S)n(CC)c1C`, the T/C [1] is reported as 107 % of control and the T/C [2] is reported as 99 % of control.

For `CCCCNC1(N(C)C)N=C(N(C)C)N=C(N(C)C)O1` (stereo not given), the T/C (dose: 50.0 mg/kg/injection, schedule: Q01DX005 (ip), vehicle: saline) was 88 % of control, the T/C (dose: 100.0 mg/kg/injection, schedule: Q01DX005 (ip), vehicle: saline) was 89 % of control and the T/C (dose: 200.0 mg/kg/injection, schedule: Q01DX005 (ip), vehicle: saline) was 95 % of control.

For `C=C(CN(C)C)C(=O)c1ccc(C(=O)C(=C)CN(C)C)cc1`, the T/C (dose: 0.78 mg/kg/injection, schedule: Q01DX005 (ip), vehicle: saline) was 105 % of control, the T/C (dose: 1.56 mg/kg/injection, schedule: Q01DX005 (ip), vehicle: saline) was 107 % of control and the T/C (dose: 3.12 mg/kg/injection, schedule: Q01DX005 (ip), vehicle: saline) was 108 % of control.

`CCO/C(C)=N\c1nc(C)[nH]c1C(N)=O` was tested, and the T/C (dose: 6.25 mg/kg/injection, schedule: Q01DX009 (ip), vehicle: saline with Tween-80) was 120 % of control, the T/C (dose: 12.5 mg/kg/injection, schedule: Q01DX009 (ip), vehicle: saline with Tween-80) was 106 % of control and the T/C (dose: 25.0 mg/kg/injection, schedule: Q01DX009 (ip), vehicle: saline with Tween-80) was 87 % of control. For the same compound, the T/C [5] was 86 % of control.

For `CCN(CC)CCNc1ccc(COC(=O)NC)c2oc3ccc(OC(=O)NC)cc3c(=O)c12`, the T/C (dose: 3.13 mg/kg/injection, schedule: Q01DX005 (ip), vehicle: Klucel (hydroxypropylcellulose) (HPC)) was 123 % of control.

In the case of `CCC[As](C)SC1OC(COC(C)=O)C(OC(C)=O)C(OC(C)=O)C1OC(C)=O` (stereo not given), the T/C [9] is reported as 110 % of control, the T/C [10] is reported as 110 % of control and the T/C [11] is reported as 110 % of control.

`C=C1C(=O)C2=CC1CCC(=O)C1(C)CCC(OC(C)=O)C(C)(C)C1CC2O` (stereo not given) was tested, and the T/C (dose: 7.5 mg/kg/injection, schedule: Q01DX009 (ip), vehicle: Klucel (hydroxypropylcellulose) (HPC)) was 105 % of control and 107 % of control, the T/C (dose: 15.0 mg/kg/injection, schedule: Q01DX009 (ip), vehicle: Klucel (hydroxypropylcellulose) (HPC)) was 110 % of control and 120 % of control and 123 % of control and the T/C (dose: 30.0 mg/kg/injection, schedule: Q01DX009 (ip), vehicle: Klucel (hydroxypropylcellulose) (HPC)) was 102 % of control and 113 % of control and 114 % of control. For the same compound, the T/C (dose: 60.0 mg/kg/injection, schedule: Q01DX009 (ip), vehicle: Klucel (hydroxypropylcellulose) (HPC)) was 111 % of control and 124 % of control.

In the case of `O=C(c1ccccc1)C1(c2ccccc2)CCCCC1`, the T/C [12] is reported as 94 % of control, the T/C [13] is reported as 94 % of control and the T/C [14] is reported as 86 % of control.

For `COc1ccc2c(c1)C(=O)CC2`, the T/C [6] was 106 % of control, the T/C [7] was 101 % of control and the T/C [8] was 101 % of control.

For `COc1ccc2c(c1)[C@@]13CCCC[C@H]1[C@H](N(C)CC3)C21CC1`, the T/C (dose: 100.0 mg/kg/injection, schedule: Q01DX001 (ip), vehicle: Klucel (hydroxypropylcellulose) (HPC)) was 97 % of control and the T/C (dose: 200.0 mg/kg/injection, schedule: Q01DX001 (ip), vehicle: Klucel (hydroxypropylcellulose) (HPC)) was 102 % of control.

For `CC(=O)OC(OC(C)=O)C(CSC#N)SC#N` (stereo not given), the T/C (dose: 6.25 mg/kg/injection, schedule: Q01DX005 (ip), vehicle: Klucel (hydroxypropylcellulose) (HPC)) was 99 % of control, the T/C (dose: 12.5 mg/kg/injection, schedule: Q01DX005 (ip), vehicle: Klucel (hydroxypropylcellulose) (HPC)) was 99 % of control and the T/C [15] was 99 % of control. For the same compound, the T/C [6] was 102 % of control, the T/C [7] was 96 % of control and the T/C [8] was 113 % of control.

In the case of `CN(C)CCCn1ncc(Sc2cc([N+](=O)[O-])ccc2N)c(Cl)c1=O`, the T/C (dose: 15.0 mg/kg/injection, schedule: Q01DX005 (ip), vehicle: saline with Tween-80) is reported as 95 % of control, the T/C (dose: 30.0 mg/kg/injection, schedule: Q01DX005 (ip), vehicle: saline with Tween-80) is reported as 94 % of control and the T/C [12] is reported as 99 % of control and 107 % of control and 94 % of control. The T/C [13] was 93 % of control and the T/C [14] was 89 % of control.

For `CN1C(=O)[C@@H]2OCCOCCO[C@H]3C(=O)N(C)C(=O)[C@@H]3OCCOCCO[C@H]2C1=O`, the T/C [15] was 112 % of control, the T/C [6] was 106 % of control and the T/C [7] was 87 % of control. The T/C [8] was 96 % of control.

With `CCOC1OCN(c2ccccc2)CC1(C)C` (stereo not given) the T/C [9] was 115 % of control, the T/C [10] was 114 % of control and the T/C [11] was 108 % of control. For the same compound, the T/C (dose: 400.0 mg/kg/injection, schedule: Q01DX009 (ip), vehicle: saline with Tween-80) was 117 % of control.

For `CC1OC(OCc2ccc(-c3ccccc3)cc2)CC(N)C1O` (stereo not given), the T/C (dose: 1.56 mg/kg/injection, schedule: Q01DX009 (ip), vehicle: water) was 99 % of control, the T/C (dose: 3.13 mg/kg/injection, schedule: Q01DX009 (ip), vehicle: water) was 104 % of control and the T/C (dose: 6.25 mg/kg/injection, schedule: Q01DX009 (ip), vehicle: water) was 107 % of control. The T/C (dose: 12.5 mg/kg/injection, schedule: Q01DX009 (ip), vehicle: water) was 108 % of control and the T/C (dose: 25.0 mg/kg/injection, schedule: Q01DX009 (ip), vehicle: water) was 98 % of control.

`O=C1NC(=O)C([N+](=O)[O-])C(=O)N1` was tested, and the T/C (dose: 25.0 mg/kg/injection, schedule: Q01DX001 (ip), vehicle: saline) was 100 % of control and the T/C (dose: 50.0 mg/kg/injection, schedule: Q01DX001 (ip), vehicle: saline) was 108 % of control.
